Values after ≈ are worked out from the molar mass of the structure shown. Active and inactive are the calls of the source. No cut-off for these calls is given here.
How the values were obtained:
Botrytis cinerea [1] = experiment: Inhibition of respiratory activity in Botryotinia fuckeliana mycelium assessed as decrease in rate of oxygen consumption at 2 mM by Clark-type oxygen electrode recording analysis in presence of succinate (reference value: 0%); type: functional
Botrytis cinerea [2] = experiment: Inhibition of respiratory activity in Botryotinia fuckeliana mycelium assessed as decrease in rate of oxygen consumption at 2 mM by Clark-type oxygen electrode recording analysis in presence of glucose (reference value: 0%); type: functional
Botrytis cinerea [3] = experiment: Fungicidal activity against Botryotinia fuckeliana grown on PDA medium assessed as inhibition of mycelial growth incubated for 4 to 7 days at 25 degC in presence of 10 mg/L mitochondrial alternative oxidase inhibitor, SHAM; type: functional, organism-based
Botrytis cinerea [4] = experiment: Fungicidal activity against Botryotinia fuckeliana grown on YgA medium assessed as inhibition of mycelial growth incubated for 4 days in the dark at 25 degC in presence of fermentable carbon source, glucose; type: functional, organism-based; conditions: 96 h
Botrytis cinerea [5] = experiment: Fungicidal activity against Botryotinia fuckeliana grown on YGA medium assessed as inhibition of mycelial growth incubated for 4 days in the dark at 25 degC in presence of non-fermentable carbon source, glycerol; type: functional, organism-based; conditions: 96 h
Botrytis cinerea [6] = experiment: Depletion of ATP content in Botryotinia fuckeliana mycelium at 80 mg/L after 24 to 48 hr by reverse phase HPLC analysis; type: functional, organism-based
Botrytis cinerea [7] = experiment: Depletion of ATP content in Botryotinia fuckeliana mycelium at 80 mg/L after 6 hr by reverse phase HPLC analysis; type: functional
Botrytis cinerea [8] = experiment: Inhibition of respiratory activity in Botryotinia fuckeliana mycelium assessed as rate of oxygen consumption at 100 mg/L by Clark-type oxygen electrode recording analysis in presence of succinate and 2 mM mitochondrial alternative oxidase inhibitor, SHAM; type: functional
Botrytis cinerea [9] = experiment: Inhibition of respiratory activity in Botryotinia fuckeliana mycelium assessed as rate of oxygen consumption at 100 mg/L by Clark-type oxygen electrode recording analysis in presence of glucose and 2 mM mitochondrial alternative oxidase inhibitor, SHAM; type: functional
Botrytis cinerea [10] = experiment: Fungistatic activity against Botryotinia fuckeliana grown in liquid medium assessed as increase in mycelium dry weight at 80 mg/L incubated for 24 hr prior to transferring mycelium to drug-free MYS medium measured after 12 hr; type: functional
Botrytis cinerea [11] = experiment: Fungistatic activity against Botryotinia fuckeliana grown in liquid medium assessed as increase in mycelium dry weight at 80 mg/L incubated for 24 hr prior to transferring mycelium to drug-free MYS medium measured after 6 hr; type: functional
Botrytis cinerea [12] = experiment: Fungicidal activity against Botryotinia fuckeliana grown in liquid medium assessed as inhibition of mycelial growth at 80 mg/L after 12 hr; type: functional, organism-based
Botrytis cinerea [13] = experiment: Fungicidal activity against Botryotinia fuckeliana grown in liquid medium assessed as inhibition of mycelial growth after 24 hr; type: functional, organism-based
Botrytis cinerea [14] = experiment: Depletion of total adenylate pool in Botryotinia fuckeliana mycelium at 80 mg/L after 24 to 48 hr by reverse phase HPLC analysis; type: functional, organism-based
Botrytis cinerea [15] = experiment: Inhibition of respiratory activity in Botryotinia fuckeliana mycelium assessed as decrease in rate of oxygen consumption at 100 mg/L by Clark-type oxygen electrode recording analysis in presence of succinate (reference value: 0%); type: functional
Botrytis cinerea [16] = experiment: Inhibition of respiratory activity in Botryotinia fuckeliana mycelium assessed as decrease in rate of oxygen consumption at 100 mg/L by Clark-type oxygen electrode recording analysis in presence of glucose (reference value: 0%); type: functional
Botrytis cinerea [17] = experiment: Induction of respiratory activity in Botryotinia fuckeliana mycelium assessed as rate of oxygen consumption at 10 mg/L after 2 min by Clark-type oxygen electrode recording analysis; type: functional
Botrytis cinerea [18] = experiment: Inhibition of respiratory activity in Botryotinia fuckeliana mycelium assessed as rate of oxygen consumption at 100 mg/L after 2 min by Clark-type oxygen electrode recording analysis; type: functional
Botrytis cinerea [19] = experiment: Inhibition of respiratory activity in Botryotinia fuckeliana mycelium assessed as decrease in rate of oxygen consumption at 20 uM by Clark-type oxygen electrode recording analysis in presence of succinate and 2 mM mitochondrial alternative oxidase inhibitor, SHAM (reference value: 0%); type: functional
Botrytis cinerea [20] = experiment: Inhibition of respiratory activity in Botryotinia fuckeliana mycelium assessed as decrease in rate of oxygen consumption at 20 uM by Clark-type oxygen electrode recording analysis in presence of glucose and 2 mM mitochondrial alternative oxidase inhibitor, SHAM (reference value: 0%); type: functional
Botrytis cinerea [21] = experiment: Inhibition of respiratory activity in Botryotinia fuckeliana mycelium assessed as decrease in rate of oxygen consumption at 20 uM by Clark-type oxygen electrode recording analysis in presence of succinate (reference value: 0%); type: functional
Botrytis cinerea [22] = experiment: Inhibition of respiratory activity in Botryotinia fuckeliana mycelium assessed as decrease in rate of oxygen consumption at 20 uM by Clark-type oxygen electrode recording analysis in presence of glucose (reference value: 0%); type: functional

## O=C(NO)c1ccccc1O [SALICYLHYDROXAMIC ACID]
Botrytis cinerea [1]
  inhibition at 2000 µM: 32%
Botrytis cinerea [2]
  inhibition at 2000 µM: 45%

## C=CCc1ccccc1O [2-ALLYLPHENOL]
Botrytis cinerea [3]
  growth inhibition (GI): Active
Botrytis cinerea [4]
  EC50: 22.9 µg/mL
Botrytis cinerea [5]
  EC50: 7.1 µg/mL
Botrytis cinerea [6]
  inhibition: Active
Botrytis cinerea [7]
  inhibition at 80 µg/mL: 70%
Botrytis cinerea [8]
  inhibition (INH): 100%
Botrytis cinerea [9]
  inhibition (INH): 100%
Botrytis cinerea [10]
  fold change (FC): 1.7
Botrytis cinerea [11]
  fold change (FC): 0.9
Botrytis cinerea [12]
  inhibition: Active
Botrytis cinerea [13]
  EC50: 25.4 µg/mL (≈ 189 µM)
Botrytis cinerea [14]
  inhibition: Active
Botrytis cinerea [15]
  inhibition at 100 µg/mL: 48%
Botrytis cinerea [16]
  inhibition at 100 µg/mL: 46%
Botrytis cinerea [17]
  Activity: 30%
Botrytis cinerea [18]
  inhibition at 100 µg/mL: 60%

## CCCCCC[C@H]1C(=O)O[C@H](C)[C@H](NC(=O)c2cccc(NC=O)c2O)C(=O)O[C@@H](C)[C@@H]1OC(=O)CC(C)C [ANTIMYCIN A]
Botrytis cinerea [19]
  inhibition (INH): 100%
Botrytis cinerea [20]
  inhibition (INH): 100%
Botrytis cinerea [21]
  inhibition at 20 µM: 55%
Botrytis cinerea [22]
  inhibition at 20 µM: 77%

— ChEMBL document CHEMBL3045109, “Inhibitory effect of bionic fungicide 2-allylphenol on Botrytis cinerea (Pers. ex Fr.) in vitro” (Pest Manag Sci, 2009)
